From ChEMBL document CHEMBL5729393, “Inhibitors of blood coagulation factor XIII” (2022)
Where a SMILES comes first, the peptide text is derived from it. [ ]: non-standard residue; d: D form. The star is where a group is joined. ξ: configuration not given here. Nle(5E-ene,6-CO2Et) = CCOC(=O)/C=C/CC[C@H](N)C(=O)O; Oic(3aξ,7aξ) = O=C(O)[C@@H]1CC2CCCCC2N1; Cbz = O=C(OCc1ccccc1)*

Molecular target: T1, Coagulation factor XIII A chain (Homo sapiens, UniProt P00488)
T1 sequence (P00488 whole entry): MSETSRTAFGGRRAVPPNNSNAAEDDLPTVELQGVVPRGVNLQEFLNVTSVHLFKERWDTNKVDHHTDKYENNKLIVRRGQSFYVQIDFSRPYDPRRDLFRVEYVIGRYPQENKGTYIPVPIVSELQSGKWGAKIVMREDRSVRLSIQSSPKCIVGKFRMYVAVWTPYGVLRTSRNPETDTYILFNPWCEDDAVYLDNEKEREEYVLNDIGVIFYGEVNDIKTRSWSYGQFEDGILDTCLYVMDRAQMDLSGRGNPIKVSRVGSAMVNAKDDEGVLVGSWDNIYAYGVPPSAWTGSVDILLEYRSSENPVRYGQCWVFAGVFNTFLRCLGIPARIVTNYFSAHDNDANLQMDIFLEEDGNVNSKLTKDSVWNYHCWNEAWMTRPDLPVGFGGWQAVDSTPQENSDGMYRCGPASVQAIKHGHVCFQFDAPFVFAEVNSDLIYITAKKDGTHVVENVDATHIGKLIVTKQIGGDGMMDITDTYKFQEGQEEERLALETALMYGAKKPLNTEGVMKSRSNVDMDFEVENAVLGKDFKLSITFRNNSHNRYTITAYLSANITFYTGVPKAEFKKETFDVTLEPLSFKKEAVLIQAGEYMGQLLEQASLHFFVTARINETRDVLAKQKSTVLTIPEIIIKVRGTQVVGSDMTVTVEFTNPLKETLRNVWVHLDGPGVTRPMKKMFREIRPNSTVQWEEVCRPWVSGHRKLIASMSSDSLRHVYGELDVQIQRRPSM
Experiment: All measurements were performed in triplicate.

IC50: > 10 µM
Structure (SMILES): CCOC(=O)/C=C/CC[C@H](NC(=O)OCc1ccccc1)C(=O)N[C@H](C(=O)N1C2CCCCC2C[C@H]1C(=O)N[C@@H](CC(C)C)C(N)=O)C(C)C (stereo partly drawn) (Cbz-[Nle(5E-ene,6-CO2Et)]V[Oic(3aξ,7aξ)]L-NH2)
